Assay: Granisetron in human plasma after APF530 (clinical pharmacokinetics)
Format: in vivo
Conditions: chemo-patients, human trials (FIGS. 3 and 4)

## CN1C2CCCC1CC(NC(=O)c1nn(C)c3ccccc13)C2 (stereo not shown) [granisetron]
  clearance of granisetron: impaired clearance

Reference: patent US20140107226A1, “METHODS FOR ENHANCING STABILITY OF POLYORTHOESTERS AND THEIR FORMULATIONS” (A.P. PHARMA, INC., priority 2008, published 2014)
